The values below are quoted from earlier work in US20020048551A1, “Delivery of biologically active material in a liposomal formulation for administration into the mouth” (priority 1999, published 2002).

Molecules are shown by their SMILES.

The conditions of this series: tablet absorbed through the buccal mucosa.

As for `C[C@]12CCC(=O)C=C1CC[C@@H]1[C@@H]2CC[C@@]2(C)[C@H]1CC[C@]2(C)O` [methyltestosterone], the “androgenic activity relative to oral tablets” value is recorded as “twice”.
